Reference: patent US6818396B1, “Process for determination of the activity of a substance using an in vitro functional test” (priority 2000, dated 2004)

Columns and labels:
TEM-1 beta-lactamase = molecular target: T1, TEM-1 beta-lactamase (Escherichia coli, UniProt P62593); format: biochemical; conditions: for reduction of the TEM-1 activity: inhibitor 21.5 μM final
T1 construct: made in house
Experimental: A screening of new TEM-1 ? -lactamase inhibitors was carried out by the process of the invention. This enzyme was expressed in vitro as described by Zubay by using 300 μg of mRNA in a final translation volume of 5 ml. […] Then 3 μl of the translation mixture were added in each microtitration plaque well and the mixture was incubated 3 minutes at 25° C. The volume was then completed to 58 μl with a revelation solution (final concentration: NaP 40 mM pH 7.0, 100 μg/ml of nitrocephine and 0.25 mM DNSO). The reaction was followed by spectrophotometry at 486 nm. Three controls were carried out: one without translation extract (therefore without enzyme), one with the substrate alone, and one without any potential inhibitor.

native TEM-1 enzyme = molecular target: T2, native TEM-1 enzyme (Escherichia coli, UniProt P62593); test: Characterization of inhibitor on native TEM-1 enzyme expressed in vitro, nitrocephine test; format: biochemical; conditions: read-out: inhibition of native TEM-1 enzyme
T2 construct: made in house
T2 sequence (P62593 24-286 limits assumed): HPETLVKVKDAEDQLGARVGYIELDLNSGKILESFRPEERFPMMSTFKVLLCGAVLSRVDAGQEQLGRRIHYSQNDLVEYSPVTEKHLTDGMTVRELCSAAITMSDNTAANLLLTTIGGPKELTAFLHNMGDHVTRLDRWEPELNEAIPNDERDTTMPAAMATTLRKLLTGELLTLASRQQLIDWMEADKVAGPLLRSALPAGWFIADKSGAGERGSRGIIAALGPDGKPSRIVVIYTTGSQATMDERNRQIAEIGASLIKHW
Experimental: For this 5 μl of a translation mixture expressing either the native enzyme or one of the two mutants were separately incubated at 25° C. for 3 minutes in a final volume of 500 μl of buffer I (final concentration: NaP 50 mM pH 7.0, 1.5 μM potential inhibitor #1). Then 100 μg/ml of nitrocephine and 0.25 mM final of DMSO were added, and the reaction was followed by spectrophotometry at 486 nm. The obtained results were expressed in maximum activity percentage measured on the enzyme in the absence of inhibitor.

T1 sequence (P62593 24-286 limits assumed): as above

In the case of `O=C(O)[C@H]1/C(=C/CO)O[C@@H]2CC(=O)N21` [inhibitor #1, clavulanic acid], the “reduction of the TEM-1 activity versus control without inhibitor” value (TEM-1 beta-lactamase; inhibitor 0.4 μM final, 3 minutes at 25° C. preincubation) is reported as 52%, the “reduction of the TEM-1 activity” value (TEM-1 beta-lactamase) is reported as 80% and the inhibition at 1.5 µM (native TEM-1 enzyme) is reported as 87%.

`CC1(C)[C@H](C(=O)O)N2C(=O)C[C@H]2S1(=O)=O` [inhibitor #2, sulbactam] was tested, and the “reduction of the TEM-1 activity” value (TEM-1 beta-lactamase) was 73%.
